Test results from patent US20070275936A1, “Formulations and Treatment Methods” (priority 1998, published 2007).

Columns and labels:
HIV-1 viral RNA = assay: Human HIV clinical protocol: viral load (bDNA); type: in vivo; conditions: after three 5-day courses of intermittent dosing over 153 days
Description: Otherwise untreated patients with CD4 counts of ≧200/μL and HIV-1 viral RNA between 5,000 and 1,000,000 copies/mL (branched-DNA, version 3.0, Bayer, Tarrytown, N.Y.) provided informed consent and were enrolled into a Phase I/II dose-escalation study of the safety and efficacy of intramuscular injections of BrEA. The protocol was conducted in South Africa. In the first cohort, four patients received an initial injection of 1 mL (50 mg), followed by a safety and pharmocokinetic study for seven days, and then received five daily injections of 1 mL (50 mg). The second cohort of 8 patients was randomized in a 1:2 ratio to receive either 50 mg (1 mL) or 100 mg (2 mL) on the same schedule. […]
CD4 counts were assessed using a FACScount (BDIS), and viral loads were measured using the bDNA assay (Bayer). […]
Statistical analysis of changes in surface phenotypes, hematological, and viral parameters were performed by calculating the area under the curve (AUC) of the percentage difference from baselines (phenotype), percentage difference from the mean of screen and baseline values (hematology), or log10 change from the mean of screen and baseline values (plasma viral RNA) for individual patients. AUC were calculated using the actual number of days between analysis visits for each patient. […]

[1] = test system: HIV infected patients with chronic diarrhea; assay: Treatment of chronic diarrhea in HIV infected patients; type: in vivo, human; conditions: two HIV infected patients, 60 mg s.c. daily for 10 days, during the period of dosing
Description: Two HIV infected patients with chronic diarrhea were dosed with BrEA as follows. A BrEA formulation (40 mg/mL BrEA in 25% v/v PEG 300, 12.5% v/v ethanol, 5% v/v benzyl benzoate, ˜57.5% v/v propylene glycol) was delivered subcutaneously. The patients received 60 mg of BrEA in 1.5 mL daily for 10 days. […] After the 10-day dosing period ended, diarrhea resumed. In other patients receiveing oral BrEA, diarrhea also went into remission.

[2] = Accelerated stability study of BrEA and the example 1 formulations; type: physicochemical
Description: An accelerated stability study of 6 months duration is conducted using BrEA and the formulations from example 1. Samples are taken at 1, 2, 3, 4, 5, and 6 month time points and compared with the specifications listed in example 1. Real time stability (25° C., 60% relative humidity) is conducted using BrEA formulation Lots 1 and 2, with sampling time points at 3, 6, 9, 12, 18, 24, and 36 months. […] The results from the stability testing indicate that BrEA is stable for at least 3 months at elevated temperature and humidity in the Lot 1 and 2 formulations.

[3] = test system: pentosephosphate shunt (PPS) activity in normal human RBC; assay: PPS flux in whole normal human RBC; type: cell-based
Description: The effect of BrEA on pentosephosphate shunt (PPS) activity in normal human RBC was examined using whole cells. Since glucose-6-phosphate dehydrogenase (“G6PD”) is the limiting enzyme of the PPS, PPS flux measurement is considered to better reflect G6PD activity in the whole cell compared to G6PD activity measurement in a cell lysate. […] PPS flux and G6PD activity in the whole RBC depends on a number of factors (the concentration of NADPH, NAD, and ATP, and intracellular pH), which are kept constant if the measurement is performed in the lysate and may vary in the whole RBC. Levels of G6PD activity in cells is considerably above normal basal needs and inhibition of overall G6PD activity might have no or minor consequence on PPS flux in the whole cell. […] A series of experiments were performed using varying amounts of BrEA and PPS flux was measured in unstimulated basal RBC and in methylene-blue (MB)-stimulated RBC.
Different concentrations of BrEA (0.3, 3.5 and 7 micromolar, final) were supplemented to suspensions of washed RBC suspended in RPMI, pH 7.4 at 10% hematocrit, whereby PPS flux was immediately measured without further incubation and without further washings.
In these experiments, different concentrations of BrEA ˜0.8, 8 and 80 micromolar, final) were supplemented to suspensions of washed RBC suspended in RPMI, pH 7.4 at 10% hematocrit. After a 90-min incubation at 37° C. with and without BrEA, PPS flux was measured.

With `C[C@]12CC[C@H](O)C[C@@H]1CC[C@@H]1[C@@H]2CC[C@]2(C)C(=O)[C@H](Br)C[C@@H]12` [BrEA, 16α-bromo-3β-hydroxy-5α-androstane-17-one] the “change in viral load” value (HIV-1 viral RNA) was “no overall decrease in viral load”, the “effect on chronic diarrhea” value [1] was “the diarrhea ceased” and the “assay potency of BrEA” value ([2]; after 3 months of storage at 40° C. and 75% relative humidity) was “at least 95 % of the label value”. The “time BrEA is stable” value ([2]; elevated temperature and humidity, in the Lot 1 and 2 formulations) was “at least 3 months”, the PPS flux ([3]; 0.3 μM, MB stimulated RBC, no incubation, DMSO control 5090) was 5000 micromoles/hour/ml RBC and the PPS flux ([3]; 0.3 μM, unstimulated RBC, no incubation, DMSO control 270) was 250 micromoles/hour/ml RBC. For the same compound, the PPS flux ([3]; 0.8 μM, MB stimulated, 90-min incubation, average of 3 experiments, DMSO control 4890) was 4930 micromoles/hour/ml RBC, the PPS flux ([3]; 0.8 μM, unstimulated, 90-min incubation at 37° C., average of 3 experiments, DMSO control 480) was 410 micromoles/hour/ml RBC and the PPS flux ([3]; 3.5 μM, MB stimulated RBC, no incubation, DMSO control 5090) was 4950 micromoles/hour/ml RBC. For the same compound, the PPS flux ([3]; 3.5 μM, unstimulated RBC, no incubation, DMSO control 270) was 270 micromoles/hour/ml RBC, the PPS flux ([3]; 7 μM, MB stimulated RBC, no incubation, DMSO control 5090) was 4660 micromoles/hour/ml RBC and the “inhibition of MB-stimulated PPS flux” value ([3]; 7 μM, no incubation) was “minor inhibition”. For the same compound, the PPS flux ([3]; 7 μM, unstimulated RBC, no incubation, DMSO control 270) was 295 micromoles/hour/ml RBC, the PPS flux ([3]; 8 μM, MB stimulated, 90-min incubation, average of 3 experiments, DMSO control 4890) was 4430 micromoles/hour/ml RBC and the PPS flux ([3]; 8 μM, unstimulated, 90-min incubation, average of 3 experiments, DMSO control 480) was 450 micromoles/hour/ml RBC. The PPS flux ([3]; 80 μM, MB stimulated, 90-min incubation, average of 3 experiments, DMSO control 4890) was 3660 micromoles/hour/ml RBC, the PPS flux ([3]; 80 μM, unstimulated, 90-min incubation, average of 3 experiments, DMSO control 480) was 450 micromoles/hour/ml RBC and the inhibition at 8 µM ([3]; Homo sapiens, 1.5 h, 8 micromolar, 90-min incubation, p=0.006 vs control+DMSO, read-out: Inhibition of MB-stimulated PPS flux) was 10%. The inhibition at 80 µM ([3]; Homo sapiens, 1.5 h, 80 micromolar, 90-min incubation, p=0.002 vs control+DMSO, read-out: Inhibition of MB-stimulated PPS flux) was 25%.
